Experimental data published in US6087120A, “Measurement of complement activation by biomaterials by means of complement convertase cleavage of peptide substrates” (HaemoProbe B.V., priority 1996, dated 2000).
Entries after “also recorded” stand apart in the source; their conditions may differ. Peptide text beside a SMILES is read from it. * marks the point of attachment. pNA = O=[N+]([O-])c1ccc(N*)cc1; Boc = CC(C)(C)OC(=O)*; Bz = O=C(c1ccccc1)*

Columns and labels:
Type in all cases: biochemical, Human
C5-convertase [1] = experiment: Complement convertase bound to biomaterial surface: cleavage of BOC-Leu-Gly-Arg-pNA, OD 405 nm; settings: washed PDMS after incubation in def PPP; 60 hours; FIG. 3a
Procedure: Human blood was collected from a healthy volunteer by vena puncture. […] Then blood was centrifuged (1100 xg) to obtain separation between plasma and blood cells. In our experiments we used this citrated human plasma after treatment with reptilase to coagulate fibrinogen. This plasma, deficient of fibrinogen (def PPP), contains the other coagulation components and can be mixed with Ca^++ containing buffer to optimize complement activation. This def PPP was stored in aliquots at -80° C. We diluted this in 50 mM TRIS buffer+33 mM CaCl2 (pH 7.4) to a percentage of 20% prior to use. The biomaterial PDMS (polydimethyl-siloxane, silicon rubber) was cut into 1 cm^2 pieces. For cleaning the biomaterial it was incubated at first in 70% ethanol, and then rinsed in 0.9% NaCl. During the experiment the pieces of biomaterials were incubated in 500 μl diluted def PPP during 0, 10, 30, or 60 min at room temperature. After incubation, the biomaterials were rinsed 3 times with saline. Then the biomaterials were incubated in BOC-Leu-Gly-Arg-pNA, diluted in TRIS buffer +33 mM CaCl2, during 60 hours at room temperature in the dark. Simultaneously, also 100 μl def PPP, in which the biomaterials had been incubated, were mixed with 100 μl of H-Leu-Gly-Arg-pNA or Bz-Leu-Gly-Arg-pNA, diluted in TRIS buffer, supplemented with 33 mM CaCl2.

complement convertase = experiment: Effect of enzyme inhibitors or EDTA present during incubation of PDMS in def PPP on convertase formation; settings: for inhibition of substrate conversion by inhibitor added prior to incubation: PDMS in def PPP aliquots, substrate H-Leu-Gly-Arg-pNA, FIG. 6
Procedure: To verify the specificity of complement convertase activity, PDMS was incubated with diluted def PPP supplemented with Ca^++ (allowing convertases to be formed) or with EDTA (preventing convertase formation).
A number of enzyme inhibitors was used to further specify the complement convertase test of the incubated def PPP with substrate H-Leu-Gly-Arg-pNA.During incubation with PDMS in different aliquots a specific thrombin inhibitor (I2581, Kabi), C1 esterase inhibitor (Sigma), the plasmin/kallikrein/chymotrypsin inhibitor aprotinin (Bayer) and EDTA was used.

C5-convertase [2] = experiment: Complement convertase released in incubated def PPP: cleavage of H- or Bz-Leu-Gly-Arg-pNA, OD 405 nm; settings: for substrate cleavage in the incubated plasma solution: def PPP after incubation with PDMS, 60 hours, FIG. 3a; for specificity of the substrate for complement activation: judged from the effect of EDTA and enzyme inhibitors on cleavage, FIG. 6
Excerpt: Human blood was collected from a healthy volunteer by vena puncture. Blood was mixed immediately with sodium citrate (0.316%, final concentration) to prevent clotting. Then blood was centrifuged (1100 xg) to obtain separation between plasma and blood cells. In our experiments we used this citrated human plasma after treatment with reptilase to coagulate fibrinogen. This plasma, deficient of fibrinogen (def PPP), contains the other coagulation components and can be mixed with Ca^++ containing buffer to optimize complement activation. This def PPP was stored in aliquots at -80° C. We diluted this in 50 mM TRIS buffer+33 mM CaCl2 (pH 7.4) to a percentage of 20% prior to use. The biomaterial PDMS (polydimethyl-siloxane, silicon rubber) was cut into 1 cm^2 pieces. For cleaning the biomaterial it was incubated at first in 70% ethanol, and then rinsed in 0.9% NaCl. During the experiment the pieces of biomaterials were incubated in 500 μl diluted def PPP during 0, 10, 30, or 60 min at room temperature. After incubation, the biomaterials were rinsed 3 times with saline. Then the biomaterials were incubated in BOC-Leu-Gly-Arg-pNA, diluted in TRIS buffer +33 mM CaCl2, during 60 hours at room temperature in the dark. Simultaneously, also 100 μl def PPP, in which the biomaterials had been incubated, were mixed with 100 μl of H-Leu-Gly-Arg-pNA or Bz-Leu-Gly-Arg-pNA, diluted in TRIS buffer, supplemented with 33 mM CaCl2. After these 60 hours the OD was measured at 405 nm in a spectrophotometer (microplate reader 3550 UV; Biorad, Richmond, Calif., USA).
In a second experiment the incubated def PPP was incubated in the presence of Ca^++ as described above and 100 μl def PPP was collected after 30 minutes. Then this collected def PPP was incubated with H-Leu-Gly-Arg-pNA and Bz-Leu-Gly-Arg-pNA in the presence of Ca^++ or in the absence of Ca^++ with EDTA.

Molecule	inhibition of substrate conversion by inhibitor added prior to incubation (complement convertase)	substrate cleavage in the incubated plasma solution (C5-convertase [2])	specificity of the substrate for complement activation (C5-convertase [2]; FIG. 4a)	further results
CC(C)C[C@H](NC(=O)OC(C)(C)C)C(=O)NCC(=O)N[C@@H](CCCNC(=N)N)C(=O)Nc1ccc([N+](=O)[O-])cc1 [BOC-Leu-Gly-Arg-pNA] (Boc-Leu-Gly-Arg-pNA)	–	–	–	substrate cleavage on the PDMS surface (C5-convertase [1]): most effective on the PDMS surface; also recorded: colour formation
aprotinin	did not inhibit substrate conversion; also recorded: then aprotinin	–	–	–
O=C(O)CN(CCN(CC(=O)O)CC(=O)O)CC(=O)O [EDTA, ethylenediamine tetra-acetic acid, reference compound]	almost completely prevented substrate conversion; also recorded: best inhibitor	–	–	convertase formation with EDTA instead of Ca++ during incubation (complement convertase; PDMS in diluted def PPP supplemented with Ca++ or EDTA): completely prevented convertase formation; effect of EDTA during substrate cleavage (second incubation) on formed convertases (C5-convertase [2]; def PPP collected after 30 min with PDMS, EDTA added with the substrate, FIG. 4a): did not prevent substrate cleavage by formed complexes; also recorded: formed convertases remained active in EDTA
CC(C)C[C@H](NC(=O)c1ccccc1)C(=O)NCC(=O)N[C@@H](CCCNC(=N)N)C(=O)Nc1ccc([N+](=O)[O-])cc1 [Bz-Leu-Gly-Arg-pNA] (Bz-Leu-Gly-Arg-pNA)	–	effective in the plasma solution; also recorded: colour formation	not reduced by EDTA; also recorded: considered non-specific	–
CC(C)C[C@H](N)C(=O)NCC(=O)N[C@@H](CCCNC(=N)N)C(=O)Nc1ccc([N+](=O)[O-])cc1 [H-Leu-Gly-Arg-pNA] (H-Leu-Gly-Arg-pNA)	–	effective in the plasma solution; also recorded: colour formation	complement dependent	–
